# pIC50: −log10 of the molar value.
# How the values were obtained:
# [1] = target: T1, human CCR4 (Homo sapiens, UniProt P51679); assay: Inhibition of MDC-induced transient Ca ion increase in CCR4/CHO cells; format: cell-based; details: human CCR4 stably overexpressing CHO cell; recombinant human MDC 10 nM; read-out: IC50 value, inhibition of Ca2+ transient increase by MDC
# T1 construct: expressed in transfected cells; host or cells: CHO-dhfr(-)
# T1 sequence (P51679 1-360): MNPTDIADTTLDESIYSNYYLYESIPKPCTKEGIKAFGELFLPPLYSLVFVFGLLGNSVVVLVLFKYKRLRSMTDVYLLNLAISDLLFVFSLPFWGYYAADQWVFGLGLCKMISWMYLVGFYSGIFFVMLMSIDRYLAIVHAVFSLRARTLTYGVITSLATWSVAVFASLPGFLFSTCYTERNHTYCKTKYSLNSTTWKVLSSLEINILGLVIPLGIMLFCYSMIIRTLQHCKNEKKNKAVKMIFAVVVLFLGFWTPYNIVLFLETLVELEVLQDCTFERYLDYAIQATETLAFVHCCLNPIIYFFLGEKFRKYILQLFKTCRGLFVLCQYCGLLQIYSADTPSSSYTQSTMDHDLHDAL
# Description: 1-1: Isolation of Human CCR4 Gene
# Human bone marrow cell cDNA was prepared using Marathon cDNA amplification kit (manufactured by Clontech). PCR primers hCCR4XbaI-F1 (SEQ ID NO:1) and hCCR4XbaI-R1 (SEQ ID NO:2) were designed based on the sequence of GenBankX85740.
# Using the human bone marrow cell cDNA as the template and using Ex Taq (manufactured by Takara), a PCR reaction (2 minutes at 95° C.→[30 seconds at 95° C., 45 seconds at 60° C., 1 minute at 72° C.]×35 times) was carried out. The thus amplified PCR product was subjected to 1% agarose gel electrophoresis, purified using QIAquick Gel Extraction Kit (manufactured by QUIAGEN) and then digested with a restriction enzyme Xbal. […]
# The thus established human CCR4 stably overexpressing CHO cell (CCR4/CHO cell) was suspended in Ham's F-12 medium and FBS (10%) and dispensed into a 96-well plate at 3.0×10^4 cells/well. […] Transient increase in the intracellular Ca^2+ concentration induced by the human MDC was measured using a Ca^2+ detector for 96-well (manufactured by Hamamatsu Photonics), and inhibition ratio (%) of the test compound was calculated by the following equation: Inhibition ratio=[(Ec−Ea)/Ec]×100 • Ec: measured value of Ca^2+ transient increase by MDC; and • Ea: measured value of Ca^2+ transient increase by MDC when a test compound was added […]
# [2] = system: TNFα; assay: Mouse TNFα production model by LPS stimulation; format: in vivo; details: mouse C57BL/6, oral, dose of 100 mg/kg, LPS 60 mg/kg i.p.
# Description: 5-1: Mouse TNFα Production Model by LPS Stimulation
# The present compound suspended in a medium, was orally applied to a mouse (male, C57BL/6), and after 0.5 hour, lipipolysaccharide (LPS, 055:B5, Sigma) was peritoneally administered to the mouse at a dose of 60 mg/kg. To the control groups was orally applied only the medium. Sixty minutes after LPS treatment, heparin-added blood collection was conducted from the abdominal vena cava under ether anesthesia, and centrifuged (12,000 r.p.m.) at 4° C. for 3 minutes, to give the plasma. The thus obtained plasma sample was stored at −80° C. before use. TNFα in the plasma was quantified using an ELISA kit (R&D systems).
# [3] = system: auricle swelling; assay: Mouse dermatitis model to which hapten is continuously applied (TNCB); format: in vivo; details: mouse Balb/c, repeated TNCB, applied to ear at a concentration of 5%
# Description: 4-2: Mouse Dermatitis Model to which Hapten is Applied
# To the auricle (both sides of the right ear) of the mouse (male, Balb/c), 1% (w/v) TNCB solution (acetone:olive oil=4:1) (20 μL) was applied to conduct first sensitization. Seven days after sensitization, 1% (w/v) TNCB (acetone:olive oil=4:1) (20 μL) was applied to the mouse auricle, to conduct induction (Day 0). Furthermore, on Days 2, 4, 6, 8, 10, 12, 14 and 16, the same procedure as on Day 0 was repeated. The compound of the present invention was dissolved in a medium, applied to both sides of the right ear (20 μL) 2 hours before applying TNCB. To the control groups, was applied only the medium. Right after the administration of the compound and 24 hours after TNCB application, the thickness of the mouse auricle was measured with Dialthickness gauge (manufactured by Ozaki Seisakusho), which was used as indicator for efficacy in mouse dermatitis model to which hapten was continuously applied.
# [4] = system: leukocyte infiltration into the lung; assay: Mouse OVA-induced asthma model; format: in vivo; details: mouse C57BL/6, oral, dose of 30 mg/kg
# Description: 3-1: Mouse OVA-Induced Asthma Model Ovalbumin (OVA, 0.2 mg/mL) and Alum (8 mg/mL) prepared in physiological saline were intraperitoneally administered (500 μL) to the mouse (male, C57BL/6) on Day 1 (test starting day) and Day 8 (1 week thereafter), to sensitize the mouse. On Days 15 to 21, the mouse was taken to an inhalation chamber (W: 240 mm×L: 240 mm×H: 120 mm), and a 2% OVA solution was sprayed with an ultrasonic wave type nebulizer (NE-U12, manufactured by Omron) for 20 minutes, to thus conduct induction. The compound of the present invention suspended in a medium, was administered orally at 30 minutes before OVA sensitization on Day 8 and at 30 minutes before OVA induction on Days 15 to 21. To the control group was administered only the medium. Three hours after OVA inhalation on Day 21, the mouse was exsanguinated, the catheter tube was inserted into the trachea, and the lung was washed with heparin-containing physiological saline (10 U/ml), to give a bronchoalveolar lavage fluid (BALF). Leukocyte number in BALF was counted using hemocyte counter (SF-3000, manufactured by Sysmex).
# [5] = system: auricle swelling; assay: Mouse DTH model (TNCB); format: in vivo; details: mouse Balb/c, applied to ear at a concentration of 5%, 24 hours after TNCB
# Description: The mouse (male, Balb/c) was shaved on the abdomen with hair clippers, and to the abdomen was applied ethanol solution (100 μL) of 7% (w/v) 2,4,6-trinitrochlrobenzene (TNCB), to sensitize the mouse. Seven days after sensitization, a 1% (w/v) TNCB solution in olive oil (20 μL) was applied to the auricle of the mouse (both sides of the right ear), to conduct induction. The present compound dissolved in a medium, was applied to both sides of the right ear (20 μL) 2 hours before applying TNCB. To the control groups, was applied only the medium. Right after the administration of the compound and 24 hours after TNCB application, the thickness of the mouse auricle was measured with Dialthickness gauge (manufactured by Ozaki Seisakusho), which was used as indicator for efficacy in mouse DTH model.
# [6] = system: CCRF-CEM cell; assay: Inhibition of MDC-induced T cell strain (CCRF-CEM cell) migration; format: cell-based; details: 4 hours
# Description: Biological Example 2: Activity on cell migration stimulated by MDC 2-1: Inhibition tests on MDC-induced T cell strain (CCRF-CEM cell) migration A medium (0.3 mL) containing or free of MDC (20 nM, manufactured by PeproTech) was added to the lower chamber of 24-transwell plate, and further a medium (0.3 mL) containing a test compound solution of 2-fold concentration (containing 0.02% dimethylsulfoxide (DMSO)) or a medium (0.3 mL) containing DMSO only was added thereto. To the upper chamber, CCRF-CEM cell suspension prepared in 1×10^6 cells/50 μl and the test compound solution of 2-fold concentration (0.05 m]L) were added. The test was initiated by superimpose the upper chamber on the lower chamber. The chambers were incubated in a carbon gas incubator (5% CO2, 95% humidity) kept at 37° C. for 4 hours, and the cells remaining in the upper chamber were sucked up and removed. Then, 0.1 ml of a buffer (phosphate-buffered saline (PBS) containing ethylenediamine tetra-acetate sodium (EDTA) (20 μM) was added thereto, and subjected- to reaction at 4° C. for 30 minutes. The transwell plate was centrifuged (1000 r.p.m.) for 5 minutes, and the incubation liquid (600 μL) in the lower chamber was collected, and the cell number was counted using Flow Cytometer (manufactured by Becton-Dickinson). […]
smiles,measurement,setting,value
"Cc1ccc(S(=O)(=O)Nc2ncc(Br)nc2OCc2cccnc2)cc1 [Example 1(1), 6-bromo-2-((pyridin-3-yl)methyloxy)-3-(4-methylphenylsulfonylamino)pyrazine]",pIC50,[1],6.89
same,TNFα production by LPS stimulation (plasma TNFα),[2],suppressed TNFα production by LPS stimulation
"COc1ccc(COc2nc(Br)cnc2NS(=O)(=O)c2ccc(C)cc2)cc1OC [Example 1(2), 6-bromo-2-((3,4-dimethoxyphenyl)methyloxy)-3-(4-methylphenylsulfonylamino)pyrazine]",pIC50,[1],7.80
"COc1ccc(COc2nc(Br)cnc2NS(=O)(=O)c2ccc(C)cc2)cc1OCCN(C)C [Example 1(3), 6-bromo-2-((3-(2-dimethylaminoethyloxy)-4-methoxyphenyl)methyloxy)-3-(4-methylphenylsulfonylamino)pyrazine]",auricle swelling,[3],suppressed the auricle swelling
same,leukocyte infiltration into the lung (leukocyte number in BALF),[4],suppressed leukocyte infiltration into the lung
"COc1ccc(COc2nc(C)cnc2NS(=O)(=O)c2ccc(C)cc2)cc1OCCN(C)C [Example 6(1), 6-methyl-2-((3-(2-dimethylaminoethyloxy)-4-methoxyphenyl)methyloky)-3-(4-methylphenylsulfonylamino)pyrazine]",auricle swelling,[5],suppressed the auricle swelling
same,pIC50,[6],8.00

# Reference: patent publication US20060004010A1, “Ccr4 antagonist and medical use thereof” (priority 2002, published 2006)
